This is an account of results in paper PMC8724172, “The effect of potent CYP2D6 inhibition on the pharmacokinetics and safety of deutetrabenazine in healthy volunteers” (European Journal of Clinical Pharmacology, 2021).

A short description of series [1]: Open-label sequential drug-drug interaction study: plasma pharmacokinetics of deutetrabenazine and its metabolites without and with steady-state paroxetine. The arrangement: AUC0−t lower by a factor in presence of paroxetine / Cmax lower by a factor in presence of paroxetine: unit not given beside the values. Conditions: for % Ratio of LS means (90% CI) (day 11)/(day 1), AUC0−t / % Ratio of LS means (90% CI) (day 11)/(day 1), AUC0−∞ / % Ratio of LS means (90% CI) (day 11)/(day 1), Cmax: deutetrabenazine + paroxetine vs deutetrabenazine alone. The text has this: This was an open-label sequential drug-drug interaction study in 24 healthy adult subjects who were CYP2D6 extensive metabolizers (EM) or CYP2D6 intermediate metabolizers (IM); Supplemental Table S1 provides the genotypes and phenotypes of the subjects.
Subjects checked into the clinic on day 1 and were confined through day 14. […] Those who met inclusion/exclusion criteria received a single dose of deutetrabenazine on day 1 followed by a 72-h washout. Subjects then received paroxetine on days 4 to 12 to achieve steady-state plasma concentrations of paroxetine by day 11. On day 11, another single dose of deutetrabenazine was administered. Triplicate 12-lead digital electrocardiograms (ECGs) were collected predose and for 10 h following deutetrabenazine dosing on day 1, and for 10 h on day 11, following paroxetine administration on day 10. Blood samples for measurement of plasma concentrations of deutetrabenazine and its metabolites were obtained on days 1 and 11 (predose, 1, 2, 2.5, 3, 3.5, 4, 4.5, 5, 6, 7, 8, 10, 12, and 16 h), days 2 and 12, at 24 and 36 h, days 3 and 13, at 48 and 60 h and days 4 and 14, at 72 h. Paroxetine trough levels were obtained pre-dose on days 9, 10, 11, and 12, and on day 13 at 24 h post the final paroxetine dose on day 12. Blood and urine samples were collected for clinical laboratory testing (hematology, serum chemistries, and urinalysis) at admission and after at least 10 h fasting and at study completion on day 14 or upon early withdrawal.
All participants received the following treatments, deutetrabenazine 22.5-mg oral dose as one 15-mg tablet + one 7.5-mg tablet on days 1 and 11 and one paroxetine 20 mg (Cadila Healthcare Ltd.) oral tablet on days 4 through 12. The deutetrabenazine 22.5-mg dose was administered with 237 mL of water in the morning approximately 30 min after a standardized breakfast meal with moderate fat content (35%). No food was allowed for at least 4 h postdose, and subjects were asked to remain upright for at least 4 h postdose, unless medically necessary.
Paroxetine 20 mg was administered in the morning with 237 mL water for 9 days (days 4 to 12) to ensure steady-state levels. On days 4 to 10 and 12, the paroxetine dose was administered in a fed state 30 min after breakfast. On day 11, as paroxetine can be administered without regard to food, subjects took the paroxetine dose under fasting conditions (at least 1 h prior to breakfast and 1.5 h prior to deutetrabenazine administration) following an overnight fast of at least 10 h. Subjects were asked to remain upright for at least 1 h after the paroxetine dose, unless medically necessary.
Validated liquid chromatography/tandem mass spectrometry methods were applied to assess plasma concentrations of paroxetine, deutetrabenazine, α- and β-HTBZ metabolites, and the O-desmethyl metabolites of α- and β-HTBZ. This was performed on a Sciex API 4000 instrument, equipped with a Turbo Ion Spray ion source operated in the positive ion mode and interfaced to a Shimadzu HPLC system fitted with a Waters XBridge C18 reverse phase column (3.5 µm; 50 × 2.1 mm) for paroxetine, deutetrabenazine, α-HTBZ and β-HTBZ or a Phenomenex Kinetex column (2.6 µm; 100 × 2.1 mm) for the O-desmethyl metabolites. The validated assay ranges were as follows: paroxetine 0.500 to 50.0 ng/mL, deutetrabenazine 0.100 to 10.0 ng/mL, deuterated α- and β-HTBZ 0.500 to 100 ng/mL, and 9-O- and 10-O-desmethyl metabolites of α-HTBZ and β-HTBZ 0.5 to 50.0 ng/mL. The methods were developed and validated by CPR Pharma Services, Pty, Ltd Australia, as described earlier.
Plasma concentrations, below the limit of quantitation (BLQ) of the assay, were designated a value of zero for initial and time points occurring at the end of the profile. For sampling time points between two quantifiable concentrations, plasma concentrations BLQ followed by a measurable concentration were set to the limit of quantitation of the assay.

Series [2] can be described thus: Safety assessments (adverse events, ECG, C-SSRS) in the drug-drug interaction study. As to the method: Subjects checked into the clinic on day 1 and were confined through day 14. […] Subjects then received paroxetine on days 4 to 12 to achieve steady-state plasma concentrations of paroxetine by day 11. On day 11, another single dose of deutetrabenazine was administered. Triplicate 12-lead digital electrocardiograms (ECGs) were collected predose and for 10 h following deutetrabenazine dosing on day 1, and for 10 h on day 11, following paroxetine administration on day 10. […] Blood and urine samples were collected for clinical laboratory testing (hematology, serum chemistries, and urinalysis) at admission and after at least 10 h fasting and at study completion on day 14 or upon early withdrawal.

The conditions of series [3]: cited from earlier work.
Setting [4] is: adverse events by treatment period, 24 subjects dosed.
[5] abbreviates: Subjects with EM phenotype (n = 15).
Where [6] appears, read: Subjects with IM phenotype (n = 8).
Setting [7] is: population of 15 EM and 8 IM, deutetrabenazine 22.5 mg, steady-state paroxetine 20 mg daily vs alone.

With `COc1cc2c(cc1O)CCN1C[C@@H](CC(C)C)[C@H](O)C[C@H]21` [9-O-desmethyl α-HTBZ], the Cmax in series [1] (human, in vivo) is 1.4 (18) ng/mL. Also, in series [1] (human, in vivo, im), the AUC0-t is reported as 13.8 (65) ng × h/mL, the Cmax is 1.2 (45) ng/mL and the Tmax is listed as 5.5 (3.5–12.0) h. The Cmax in series [1] (human, in vivo, po, 22.5 mg) is 1.3 (28) ng/mL. In series [1] (in vivo), the “AUC0−t lower by a factor in presence of paroxetine” value was found to be 0.3 and the “Cmax lower by a factor in presence of paroxetine” value came out at 0.4.
With `[2H]C([2H])([2H])Oc1cc2c(cc1OC([2H])([2H])[2H])C1CC(=O)C(CC(C)C)CN1CC2` (stereo not shown) [Deutetrabenazine], in series [2] (setting [4]), the Back pain is recorded as 0 (0%) n (%), the Chest discomfort is recorded as 0 (0%) n (%), the Decreased appetite is reported as 0 (0%) n (%) and the Dizziness is reported as 1 (4%) n (%). In series [2] (setting [4]), the Feeling abnormal was 0 (0%) n (%); the Feeling hot is given as 0 (0%) n (%); the “Gastrointestinal Disorders” value is on record as 0 (0%) n (%); the “General Disorders and Administration Site Conditions” value is reported as 0 (0%) n (%). For the same compound, in series [2] (setting [4]), the Gingival pain is reported as 0 (0%) n (%), the Headache was 0 (0%) n (%), the Hypoaethesia oral was 0 (%) n (%) and the Local swelling was 0 (0%) n (%). Also, in series [2] (setting [4]), the “Metabolism and Nutritional disorders” value is 0 (0%) n (%); the Muscle tightness is listed as 0 (0%) n (%); the “Musculoskeletal and Connective Tissue Disorders” value is 0 (0%) n (%); the Nausea was 0 (0%) n (%). In series [2] (setting [4]), the “Nervous System Disorders” value was 1 (4%) n (%), the Paraesthesia oral was 0 (0%) n (%), the “Sensation of foreign body” value was 0 (0%) n (%) and the Sensation of heaviness was 0 (0%) n (%). In addition, in series [2] (setting [4]), the Swollen tongue is 0 (0%) n (%) and the Vomiting was 0 (0%) n (%). For the same compound, the “Subjects with AEs, n (%)” value in series [2] (by treatment period, 24 subjects dosed) is listed as 3 (13%) n (%). In series [2] (in vivo), the “Infections and Infestations” value is reported as 0 (0%) n (%); the “Viral Infections” value is reported as 0 (0%) n (%). In series [2] (single doses of 22.5 mg, alone or in the presence of steady-state paroxetine (20 mg daily), healthy subjects), the Safety and tolerability entry was “safe and generally well tolerated”. The “Mean plasma concentrations in the presence and absence of paroxetine” value in series [1] (deutetrabenazine 22.5 mg oral, day 11 vs day 1) is recorded as “comparable”. Besides, in series [1] (human, in vivo), the Cmax is given as 0.3 (44) ng/mL and the Tmax is given as 3.5 (1.0–6.0) h. In series [1] (human, in vivo, im), the AUC0-t is on record as 1.0 (55) ng × h/mL, the Cmax is given as 0.5 (66) ng/mL and the Tmax is reported as 3.5 (1.0–6.0) h. Also, the Cmax in series [1] (human, in vivo, po, 22.5 mg) is 0.4 (60) ng/mL.
Take `COc1cc2c(cc1O)CCN1C[C@@H](CC(C)C)[C@@H](O)C[C@H]21` [9-O-desmethyl β-HTBZ]: in series [1] (human, in vivo), the Cmax is 4.5 (20) ng/mL. Also, in series [1] (human, in vivo, im), the AUC0-t was 105 (33) ng × h/mL, the Cmax is given as 4.2 (45) ng/mL, the Tmax is listed as 7.0 (4.0–24.0) h and the t1/2 is given as 16.8 (13) (n = 7) h. Also, in series [1] (human, in vivo, po, 22.5 mg), the Cmax is given as 4.4 (29) ng/mL. In addition, in series [1] (in vivo), the “AUC0−t lower by a factor in presence of paroxetine” value was 0.7 and the “Cmax lower by a factor in presence of paroxetine” value is recorded as 0.4.
Regarding `COc1cc2c(cc1OC)[C@H]1C[C@H](O)[C@H](CC(C)C)CN1CC2` [β-HTBZ], in series [3] (after tetrabenazine administration), the “Increase in exposure with paroxetine” value was “ninefold”. Also, the “Increase of AUC with paroxetine” value in series [3] (paroxetine administered with tetrabenazine) is given as “ninefold”. Moreover, in series [1] (All subjects (n = 23)), the “% Ratio of LS means (90% CI) (day 11)/(day 1), AUC0−t” value (shortened to “% Ratio of LS means (90% CI) … AUC0−t”) is recorded as 484.7 (355.2–661.5) %; the “% Ratio of LS means (90% CI) (day 11)/(day 1), AUC0−∞” value (shortened to “% Ratio of LS means (90% CI) … AUC0−∞”) is on record as 520.6 (388.9–697.0) %; the “% Ratio of LS means (90% CI) (day 11)/(day 1), Cmax” value (shortened to “% Ratio of LS means (90% CI) … Cmax”) is on record as 154.3 (126.0–189.0) %. Further, in series [1] (setting [5]), the “% Ratio of LS means (90% CI) … AUC0−t” value is reported as 641.3 (537.3–765.4) %; the “% Ratio of LS means (90% CI) … AUC0−∞” value is 649.9 (549.6–768.5) %; the “% Ratio of LS means (90% CI) … Cmax” value is listed as 216.4 (185.0–253.2) %. In addition, in series [1] (setting [6]), the “% Ratio of LS means (90% CI) … AUC0−t” value is 744.6 (605.3–915.8) %; the “% Ratio of LS means (90% CI) … AUC0−∞” value is on record as 731.5 (595.0–899.3) %; the “% Ratio of LS means (90% CI) … Cmax” value was 259.2 (216.7–310.1) %. In series [1] (deutetrabenazine 22.5 mg, steady-state paroxetine vs alone), the “Increase of half-life (t1/2) in presence of paroxetine” value worked out at 2.7 fold. The Cmax in series [1] (human, in vivo) is on record as 20.4 (33) ng/mL. Moreover, in series [1] (human, in vivo, im), the “AUC0–∞” value is recorded as 333 (75) ng × h/mL, the Cmax is on record as 32.6 (22) ng/mL, the Tmax is 4.0 (2.0–8.0) h and the t1/2 was 7.9 (50) h. The Cmax in series [1] (human, in vivo, po, 22.5 mg) is given as 24.6 (38) ng/mL. Moreover, in series [1] (setting [7]), the “Increase of AUC0–∞ in presence of paroxetine” value is given as 5.6 fold and the “Increase of Cmax in presence of paroxetine” value worked out at 2.1 fold.
As for `COc1cc2c(cc1O)[C@H]1C[C@H](O)[C@H](CC(C)C)CN1CC2` [10-O-desmethyl β-HTBZ], the “Quantifiability of plasma concentrations” value in series [1] (in vivo) is “appeared transiently in some subjects”.
As for `Fc1ccc([C@@H]2CCNC[C@H]2COc2ccc3c(c2)OCO3)cc1` [Paroxetine, reference compound], in series [2] (setting [4]), the Back pain is recorded as 1 (4%) n (%), the Chest discomfort is on record as 1 (4%) n (%), the Decreased appetite is on record as 3 (13%) n (%) and the Dizziness is reported as 1 (4%) n (%). Also, in series [2] (setting [4]), the Feeling abnormal was 1 (4%) n (%); the Feeling hot is listed as 1 (4%) n (%); the “Gastrointestinal Disorders” value was 5 (21%) n (%); the “General Disorders and Administration Site Conditions” value is recorded as 5 (21%) n (%). Also, in series [2] (setting [4]), the Gingival pain is listed as 1 (4%) n (%); the Headache is listed as 5 (21%) n (%); the Hypoaethesia oral is 1 (4%) n (%); the “Infections and Infestations” value was 1 (4%) n (%). In series [2] (setting [4]), the Local swelling is recorded as 1 (4%) n (%); the “Metabolism and Nutritional disorders” value is on record as 3 (13%) n (%); the Muscle tightness was 1 (4%) n (%); the “Nervous System Disorders” value is recorded as 7 (29%) n (%). In series [2] (setting [4]), the Paraesthesia oral is 1 (4%) n (%), the “Sensation of foreign body” value is 1 (4%) n (%), the Sensation of heaviness is recorded as 0 (0%) n (%) and the “Viral Infections” value is on record as 1 (4%) n (%). In series [2] (most common AE, reported 8 times by 7 subjects overall), the “Headache, subjects reporting” value is reported as 5 subjects. Also, in series [1] (paroxetine 20 mg oral daily on days 4–12), the “Steady-state exposure (mean trough plasma concentrations, visual inspection)” value was “achieved on day 10”.
